Reference: PMC8636514, “Therapeutic potential of TRPM8 antagonists in prostate cancer” (Scientific Reports, 2021)
Read-outs that look alike come from different tables or passages of the source. Each block holds one compound with its values, some of them ahead of it.

How the values were obtained:
human TRPM8 [1] = biological target: T1, human TRPM8 (Homo sapiens, UniProt Q7Z2W7); details: maximal currents at 5 µM compared to L-menthol 100 µM; cited from earlier work
T1 construct: expressed in transfected cells; host or cells: HEK-293/TRPM8 exon1 K3 cells

human TRPM8 [2] = biological target: T1, human TRPM8; assay: Patch-clamp assay on TRPM8 channels (HEK-293/TRPM8 cells, menthol-evoked currents); type: cell-based; details: for inhibitory effect on menthol-evoked TRPM8 currents: dependence on concentration
Experimental: Patch clamp experiments for compounds 4, 5 and 9 were done as described. HEK-293/TRPM8 exon 1 cells were seeded 3 or 4 days before experiment at a concentration of 4 and 2.5 million cells, respectively, onto a T225 flask. Before each experiment, cells were washed two times with D-PBS without Ca^2+/Mg^2+ (Euroclone, Milan, Italy) and trypsinized with trypsin−EDTA (Sigma-Aldrich; diluted 1/10). Cells were suspended in 25 mL of EX-CELL ACF CHO medium (Sigma-Aldrich, Milan, Italy), 0.625 mL of HEPES (Lonza, Walkersville, USA), 0.25 mL of 100 × penicillin/streptomycin (Lonza, Walkersville, USA), 0.1 mL of soybean trypsin inhibitor 10 mg/mL (Sigma-Aldrich), and placed on the automated patch-clamp platform (QPatch 16X, Sophion Bioscience, Ballerup, Denmark). A stock solution of L-Menthol (1 M, 100% DMSO), used as reference agonist, was freshly prepared. A diluted stock of 300 mM was prepared from the 1 M stock in 100% DMSO, and a final dilution was obtained using the extracellular solution to give a working concentration of 300 μM (1:1000, 0.1% final DMSO concentration). Stock solutions of the testing compounds (10 mM; 100% DMSO; stored at − 20 °C) were freshly prepared, as well. Further dilution of these stock solutions to a final concentration of 300 μM was performed from the 10 mM stock in 100% DMSO, and the working dilutions were performed just before the experiments using the extracellular solution containing 300 μM menthol. The highest concentration tested was 300 nM, with serial dilutions (1:10). DMSO was balanced to keep it constant throughout all the solutions in the same experiment (0.2% final DMSO concentration). Standard whole-cell voltage clamp experiments were performed at room temperature using the multihole technology. For the voltage clamp experiments on human TRPM8, data were sampled at 2 kHz. After establishment of the seal and the passage in the whole cell configuration, the cells were subjected to a voltage ramp (20 ms step at − 60 mV; 100 ms ramp − 60/ + 100 mV; 20 ms step at + 100 mV; return to − 60 mV) every 4 s. The antagonistic effect on human TRPM8 current of target compounds was evaluated after application of the agonist (menthol, 300 μM), in the absence or presence of increasing concentrations of the compound under investigation. Outward current evoked by the voltage ramp, measured in the step at + 100 mV were measured. The intracellular solution contained (mM) 135 CsCl, 10 BAPTA, 10 HEPES, 4 Na2ATP (pH 7.2 with CsOH). The extracellular solution contained (mM) 145 NaCl, 4 KCl, 1 MgCl2, 2 CaCl2, 10 HEPES, 10 glucose (pH 7.4 with NaOH). TRPM8 modulation by final compounds 3 and 6 has been previously determined by patch clamp measurements[29],[30].

LNCaP cells [3] = assay: DNA synthesis (BrdU incorporation) in LNCaP cells; type: cell-based, human; details: 10 nM R1881, compound 1 μM
Experimental: […] Cells were fixed, permeabilized, washed and the BrdU incorporation was analysed as reported. Nuclei were stained with Hoechst and cells on coverslips were scored by IF microscopy, using a DMLB Leica (Leica) fluorescent microscope, equipped with HCX PL Apo 63 × oil objective. Different fields from each coverslip were analyzed and BrdU incorporation was calculated by the formula: percentage of BrdU-positive cells = (No. of BrdU-positive cells/No. of total cells) × 100. Data in the graphs derive from at least 1000 scored cells for each coverslip. Representative images were captured using DC480 camera (Leica) and acquired using Leica Suite software. They are representative of three different experiments.

PSA = PSA secretion (ELISA) from LNCaP cells; type: cell-based, human; details: enzalutamide 10 μM
Experimental: It was done in culture medium using the PSA ELISA kit (Abnova-Taiwan Corporation, Taiwan), according to the manufacturer’s instructions. Released PSA was analyzed at 450 nm using the EnSpire Multimode Plate Reader (Perkin-Elmer, U.S.A.).

[4] = test system: FAK, paxillin, ERK, RSK and Src tyrosine kinase; assay: Western blot of androgen-induced rapid actions in LNCaP cells (Fig. 6c); type: cell-based, human; details: 10 nM R1881, 10 min, enzalutamide 10 μM
Excerpt: (§1) All performed as reported. The mouse monoclonal anti-AR (441; Santa Cruz) antibody was used in Co-Ip or WB approaches. TRPM8 was detected using the rabbit polyclonal anti-TRPM8 (NBP1-97311; Novus Biological). […] The rabbit polyclonal anti-ERK (C-14; Santa Cruz), antibody was used to detect total ERK. FAK and P-Tyr397 FAK were detected using the mouse monoclonal anti-FAK (Clone 77/610077 BD Transduction Laboratories) or anti P-Tyr397 FAK (Clone 14/611722; BD Transduction Laboratories) antibodies, respectively. P-Tyr118 paxillin and total paxillin were detected using the rabbit polyclonal anti-P-Y118 (#2541, Cell Signaling) or the mouse monoclonal anti-paxillin (clone 349; BD Biosciences) antibodies, respectively. […] P-Tyr 416 Src and Src were detected using the rabbit monoclonal anti P-Tyr 416 Src (#6943; Cell Signaling) or the mouse monoclonal anti Src (Calbiochem) antibodies, respectively. ERα and ERβ were detected using the rabbit polyclonal anti-ERα (543; Santa Cruz) or anti-ERβ (Upstate Biotechnology, U.S.A.) antibodies. Cyclin D1, p27 and Cdk4 were stained using the mouse monoclonal anti-cyclin D1 (clone AM29; from Zymed Laboratories Inc.), the rabbit polyclonal anti-p27 (C-19; Santa Cruz) or anti Cdk-4 (c-22; Santa Cruz) antibodies, respectively. The mouse monoclonal anti-tubulin (Sigma-Aldrich) antibody was used to detect tubulin. The ECL system (GE Healthcare) was employed to reveal immune-reactive proteins. Densitometric analysis of WB was performed by using Image J Software (https://imagej.nih.gov/ij).

AR/TRPM8 complex = biological target: T2, AR/TRPM8 complex (Homo sapiens, UniProt Q7Z2W7); assay: Co-IP of AR with TRPM8 in LNCaP cells; type: cell-based; details: for AR, Average (n=3) / TRPM8, Average (n=3): Fig 6e, R1881 + enz 10 μM
T2 construct: We here dissected an endogenous non-genomic mechanism of the TRPM8 channel regulation by androgens in PC cells; endogenous in cells; host or cells: LNCaP cells
Excerpt: as §1

AR = assay: Western blot of AR in LNCaP lysate proteins; type: cell-based, human; details: Fig 6e, R1881 + enz 10 μM
Excerpt: as §1

C4-2B cells = assay: DNA synthesis (BrdU incorporation) in C4-2B cells; type: cell-based, human; details: cycling cells, 18 h, 10 μM
Experimental: Cells on coverslips were pulsed in vivo with BrdU (Sigma-Aldrich; at 100 μM, final concentration) and left unchallenged or challenged with 10 nM R1881 for 18 h, in the absence or presence of the indicated compounds. Cells were fixed, permeabilized, washed and the BrdU incorporation was analysed as reported. Nuclei were stained with Hoechst and cells on coverslips were scored by IF microscopy, using a DMLB Leica (Leica) fluorescent microscope, equipped with HCX PL Apo 63 × oil objective. Different fields from each coverslip were analyzed and BrdU incorporation was calculated by the formula: percentage of BrdU-positive cells = (No. of BrdU-positive cells/No. of total cells) × 100. Data in the graphs derive from at least 1000 scored cells for each coverslip. Representative images were captured using DC480 camera (Leica) and acquired using Leica Suite software. They are representative of three different experiments.

TRPM8 = assay: Western blot of TRPM8 in LNCaP lysate proteins; type: cell-based, human; details: Fig 6e, R1881 + enz 10 μM
Excerpt: as §1

LNCaP cells [5] = test system: LNCaP cells; design: method as in PMID 33288740; details: cited from earlier work
[6] = fourth group of list (probably IP anti-AR)

T1 sequence (Q7Z2W7 whole entry): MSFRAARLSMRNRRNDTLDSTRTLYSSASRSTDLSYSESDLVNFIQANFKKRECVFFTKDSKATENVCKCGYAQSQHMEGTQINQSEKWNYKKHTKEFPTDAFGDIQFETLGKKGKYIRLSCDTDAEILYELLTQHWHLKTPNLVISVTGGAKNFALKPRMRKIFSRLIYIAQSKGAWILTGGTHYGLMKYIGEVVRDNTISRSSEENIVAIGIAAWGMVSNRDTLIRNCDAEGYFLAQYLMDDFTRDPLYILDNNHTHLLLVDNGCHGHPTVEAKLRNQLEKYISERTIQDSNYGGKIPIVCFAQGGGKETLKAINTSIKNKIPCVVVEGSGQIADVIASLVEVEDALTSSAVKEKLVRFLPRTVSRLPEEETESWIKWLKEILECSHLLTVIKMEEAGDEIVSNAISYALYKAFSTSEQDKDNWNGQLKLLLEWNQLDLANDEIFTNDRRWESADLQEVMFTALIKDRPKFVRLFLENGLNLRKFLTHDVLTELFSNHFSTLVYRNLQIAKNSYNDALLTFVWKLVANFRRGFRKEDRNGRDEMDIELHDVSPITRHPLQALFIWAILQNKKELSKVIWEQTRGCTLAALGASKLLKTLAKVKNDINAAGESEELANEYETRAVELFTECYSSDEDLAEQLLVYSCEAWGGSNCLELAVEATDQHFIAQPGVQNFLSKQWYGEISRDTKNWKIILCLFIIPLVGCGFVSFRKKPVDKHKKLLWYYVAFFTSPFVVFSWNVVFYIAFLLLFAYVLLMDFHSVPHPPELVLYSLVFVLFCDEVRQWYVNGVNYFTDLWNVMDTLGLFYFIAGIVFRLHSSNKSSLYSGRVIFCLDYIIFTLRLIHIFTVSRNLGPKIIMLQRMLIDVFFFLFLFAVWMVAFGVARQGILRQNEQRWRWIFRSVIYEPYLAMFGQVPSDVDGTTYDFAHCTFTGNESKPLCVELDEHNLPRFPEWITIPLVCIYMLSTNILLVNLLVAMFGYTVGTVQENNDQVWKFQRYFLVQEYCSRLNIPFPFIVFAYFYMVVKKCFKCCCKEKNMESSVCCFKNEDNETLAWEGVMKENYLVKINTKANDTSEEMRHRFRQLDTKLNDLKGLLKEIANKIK
T2 sequence (Q7Z2W7 whole entry, one chain of several): as the sequence (Q7Z2W7 whole entry) above

Compound: c1ccc(Oc2ccc(CNCCc3c[nH]c4ccccc34)cc2)cc1 [Compound 3]
- % Efficacy (human TRPM8 [1]): 100.0 ±8.4%

Compound: O=[N+]([O-])c1ccc(Sc2[nH]c3ccccc3c2CCNCc2ccc(Oc3ccccc3)cc2)c([N+](=O)[O-])c1 [Compound 5]
- IC50 (human TRPM8 [2]; 300 µM menthol-evoked currents, read-out: Potency IC50): 340 ± 26 nM
- IC50 (human TRPM8 [2]; TRPM8 antagonist, menthol-evoked currents, one range for both compounds, read-out: IC50): 204 to 340 nM
- inhibitory effect on menthol-evoked TRPM8 currents (human TRPM8 [2]): concentration-dependent

- IC50 (human TRPM8 [2]; TRPM8 antagonist, read-out: IC50): 5000 nM
- inhibitory effect on menthol-evoked TRPM8 currents (human TRPM8 [2]): concentration-dependent
Compound: Cn1cc(CNCCc2ccc(-c3ccccc3)cc2)c2cc(CNc3ccc(F)cc3)ccc21 [Compound 9]
- inhibitory effect on R1881-stimulated DNA synthesis, compared with 3 and 5 (LNCaP cells [3]): stronger

- androgen-induced AR/TRPM8 complex assembly (AR/TRPM8 complex; 10 nM R1881, 10 min, enzalutamide 10 μM): perturbed
- AR, Average (n=3) (AR/TRPM8 complex; [6]): 1,1
- TRPM8, Average (n=3) (AR/TRPM8 complex; [6]): 0,3
- AR, Average (n=3) (AR/TRPM8 complex; second group of list): 0,1
- TRPM8, Average (n=3) (AR/TRPM8 complex; second group of list): 0,1
- AR, Average (n=3) (AR/TRPM8 complex; third group of list): 1
- TRPM8, Average (n=3) (AR/TRPM8 complex; third group of list): 0
Compound: CNC(=O)c1ccc(N2C(=S)N(c3ccc(C#N)c(C(F)(F)F)c3)C(=O)C2(C)C)cc1F [Enzalutamide]
- androgen-induced PSA secretion (PSA; R1881, 48 h): strongly inhibited
- PSA secretion when used alone (PSA; no R1881): Neither the two TRPM8 antagonists, nor enzalutamide did modify such response
- androgen-elicited activation of FAK, paxillin, ERK, RSK and Src [4]: impaired at similar extent
- AR, Average (n=3) (AR): 1,1
- BrdU incorporation (C4-2B cells): did not observe any effect
- TRPM8, Average (n=3) (TRPM8): 1,1

Compound: COc1ccc(NC(=O)[C@@H]2C[C@H](C)CC[C@H]2C(C)C)cc1 [WS-12]
- viability of LNCaP cells (LNCaP cells [5]): slightly modify
